Experimental data taken from US20230390315A1, “COMPOSITIONS AND METHODS FOR TREATING ISCHEMIC CONDITIONS” (The Regents of the University of California, priority 2020, published 2023).

Columns and labels:
HUVEC [1] = assay: HUVEC scratch assay; type: cell-based, human; conditions: 40 uM ManN in combination with 50 ng/ml VEGF
Experimental: BCECs (passage 6-10) and HUVEC (passage 6-8) were used in this assay. Cells were grown until about 80% confluency in 6-well plates, washed twice with PBS and then starved in serum-free DMEM (low Glucose, Hyclone) for 5 hrs before making a “scratch” using 1 ml tip. Cell monolayers were briefly washed once with serum-free media, followed by various treatments in media containing 1% FBS. 48 hrs later, the assay was stopped by adding 2 ml 4% paraformaldehyde. 20 min later, fixed cells were stained with 1 ml Crystal Violet (Sigma). Plates were washed gently under the running tap water and air-dried before taking pictures. Images were acquired by ZEISS Discovery V8 SteREO microscopy equipped with PixeLINK Megapixel FireWire camera. Quantification of wound closure was done using AxioVision LE Rel.4.4 software. Six images were taken for each sample and six measurements (in pixel) were made on each image using AxioVision LE Rel.4.4 software.

[2] = test system: bovine retinal microvascular endothelial cells (BREC); assay: BREC proliferation assay; type: cell-based
Experimental: Proliferation assays with BCECs and BRECs were performed. Log-phase growing BCECs or BRECs (passage <10) were trypsinized, re-suspended and seeded in 96-well plates (no coating) in low-glucose DMEM supplemented with 10% bovine calf serum, 2 mM glutamine, and antibiotics (growth medium), at a density of 1200-1500 cells per well in 200 μl volume. All reagents were added at the indicated final concentrations. After 3-6 days, cells were incubated with AlamarBlue for 4 hrs. Fluorescence was measured at 530 nm excitation wavelength and 590 nm emission wavelength. The experiments were repeated at least three times. To create a hypoxic condition, cells were placed in a hypoxia incubator with a mixture of gas consisting of 1% 02, 5% CO2 and 94% Nz. On each 96-well plate, untreated and VEGF-treated (10/ng/ml) wells were included to monitor plate-to-plate variations. 20% methanol or 0.05% DMSO served as negative controls. 0.05% DMSO served as negative controls when Cas was tested in these cells. Human RMVECs and human adult DMVECs were split into Gelatin-coated 96 wells (2000 cells per well) in low glucose DMEM containing 10% FBS. 1200 cells/well was set up for proliferation assay in low glucose media containing FBS. Data was collected at day 4 or 5. HUVEC (p7-10) were grown on gelatin-coated plate until it reached 70-80% confluency.

HUVEC [3] = assay: HUVEC migration assay; type: cell-based, human; conditions: 40 uM ManN alone
Experimental: HUVECs (passage 6-8) were cultured and serum-starved as described in “Western Blots”. Ten thousand cells in 150 μl of EBM-2 medium were then added to the upper chamber of 8 μm pore size cell culture inserts (Falcon) coated with 0.1% gelatin. The lower compartment was filled with 600 μl EBM-2 medium containing various agents. The plates were incubated at 37° C. to allow migration. After 4 hrs, cells were fixed with 4% PFA for 20 min and then stained with crystal violet (Sigma-Aldrich) for 20 min at RT. Migrated cells on the bottom side of the insert membrane were quantified by counting whole area of the insert at 40× magnification. The experiments were carried out in triplicate and repeated three times. BCEC migration was set up similarly, except that wells were coated with FN, cells were suspended in 1% serum media and migration time was 18-24 hrs.

ARPE-19 RPE cells = assay: Human RPE cell proliferation assay; type: cell-based
Experimental: Proliferation assays with fibroblasts were done in low-glucose DMEM containing 1% FBS, with or without 10 ng/ml bFGF, or 100 ng/ml human EGF and the assay was ended at day 3. ARPE-19 cells were gently lifted with 0.025% trypsin and plated in RtEGM media (Clonetics) containing 2% FBS, L-glutamine, human bFGF and GA-1000. Once cells were attached to plates, serum-free RtEGM media was used to maintain the cultures. For proliferation assays, 1500 human RPE cells were plated into 96-well plates in low-glucose DMEM containing 1% FBS. A673, U87MG, Calu6 and AML12 cells were grown until confluent and were then harvested and re-suspended in appropriate assay media. For proliferation assays, cells were plated at the density of 1000-2000 cells/well in low-glucose DMEM containing 5% FBS or otherwise stated. Bovine pituitary cells (pituitary folliculostellate cells) were isolated as previously described. For proliferation assays with human epidermal keratinocytes, human DMVECs and human dermal fibroblast cells, 1000 cells/well were plated in low-glucose DMEM containing 1% FBS with or without various growth factors. The assay was ended at day 3 for bovine pituitary cells and at day 4 for all the other cell types. […] Four days later, tumor cell growth was measured by the MTS assay (Promega, Madison, WI), a colorimetric assay that measures metabolic activity of viable cells. […]

β-Glucosidase = assay: β-glucosidase activity assay; type: biochemical, almond; conditions: up to 2 mM
Experimental: (§1) a-mannosidase activity was measured using substrate p-nitrophenyl α-mannopyranoside (1 mM). Enzyme from Jack Bean ([…]) (final concentration of 0.077 U) was incubated at 37° C. in a final volume of 50 μl of 50 mM potassium phosphate buffer, pH 7.5. α-glucosidase was assayed with substrate p-nitrophenyl α-glucoside (7 mM). Enzyme from Saccharomyces cerevisiae-type 1 (Sigma, G5003) (final concentration of 0.1 U) was incubated at 37° C. in a final volume of 50 μl of PBS, pH 7.5. β-Glucosidase was assayed with substrate 4-nitrophenyl β-D-glucopyranoside (Roche). Enzyme from almond (Sigma, G0395) (final concentration of 0.002 U) was incubated at 37° C. in a final volume of 50 μl of PBS, pH 7.5 containing 1% SDS. The incubation was stopped by addition of an equal volume of acid-based stop solution (R&D systems, 895032). Enzymatic activity was measured at 405 nm. α-glucosidase from Saccharomyces cerevisiae type I ([…]) with p-nitrophenyl α-D-glucopyranoside (Sigma, N1377) as the substrate.

α-glucosidase = α-glucosidase activity assay; type: biochemical, Saccharomyces cerevisiae; conditions: up to 2 mM
Experimental: as §1

N[C@H](C=O)[C@@H](O)[C@H](O)[C@H](O)CO [ManN, 2-Amino-2-deoxy-D-mannose]
HUVEC wound closure (HUVEC [1]): stimulation of migration and wound closure | additive effects in promoting BREC proliferation [2]: Additive effects | HUVEC migration (HUVEC [3]): stimulation of migration | cellular toxicity, sensitivity among cell types (ARPE-19 RPE cells; 5 mM level of ManN): least sensitive | proliferation of human RPEs (ARPE-19 RPE cells; alone or in combination with growth factors): no increases in proliferation | effect on β-glucosidase (β-Glucosidase): No effect | effect on α-glucosidase (α-glucosidase): No effect
